The nature of data set [1]: Compatibility of selenium compounds with alpha-ketoglutaric acid in the preparation. The note with it: for reaction / compatibility with alpha-ketoglutaric acid: on addition to the preparation of EP 326826 B1. Type of data set: physicochemical. On the procedure: Thus initially the research was carried out by the addition of selenium in the form of selenite. […] Attempts were made to suppress this redox reaction by incorporating the selenium in organic compounds. As such a compound, finally seleno-methionine was selected. […] However, with the addition of this compound as a complement to the composition of European Patent 326826 B1 there is a danger that this substance will be incorporated into body proteins, and effect which might reduce the desired effect of the N-acetyl-seleno-L-methionine or cause the effect of that compound to be completely lost.

The test system of a further data set is malignant brain tumors. The following applies: cited from earlier work.
A further data set has as its system mammary carcinoma. The following applies: rats with 1-methyl-1-nitro urea induced mammary cancer; cited from earlier work.

Each structure is given as a SMILES string.

`O=[Se]([O-])[O-].[Na+].[Na+]` [selenite, Na-selenite]: the “reaction / compatibility with alpha-ketoglutaric acid” value in data set [1] was “amorphous selenium precipitated out”. Further, in the data set with malignant brain tumors (manifested by erythrocyte number, hemoglobin value, thrombocyte count), the “general well-being of the patients” value is “improvement in the general well-being”. Moreover, the “patients who felt a reduction in unpleasant side effects” value with malignant brain tumors (patients with malignant brain tumors) is listed as 76%. The “density of the intra tumoral microvessels in the mammary carcinoma” value in the data set on mammary carcinoma was “significantly reduced”.

Regarding `C[Se]CC[C@H](N)C(=O)O` [seleno-methionine], the “Maillard reaction with ketoglutaric acid” value in data set [1] (especially at the higher temperatures of heat sterilization) was “undergoes a Maillard reaction with the ketoglutaric acid”. For the same compound, the “reaction / compatibility with alpha-ketoglutaric acid” value in data set [1] is given as “does not react with the alphaketoglutaric acid”.

These data come from patent US7855191B2, “Agent having a destructive effect on malignant tumors and method for the production thereof” (C.Y.L. Pharmazeutika GmbH, priority 2002, dated 2010).
